From patent US20240246968A1, “SMALL MOLECULE INHIBITORS OF KRAS G12C MUTANT” (Merck Sharp & Dohme LLC, priority 2021, published 2024)

Tests used:
[1] = target: T1, interaction between recombinant K-Ras4B G12C mutant protein and cRAF RAS-binding domain (cRAF-RBD) (Homo sapiens, UniProt P01116, G12C); test: Inhibitory activity on interaction between KRAS G12C and cRAF (Alpha technology); format: biochemical; conditions: GMPPNP-bound KRAS G12C incubated with compound at 25° C. for 1 hour, then cRAF-RBD; Alpha signal
T1 construct: made in house; host or cells: E. coli
Method in brief: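 Alpha readout of cRAF-RBD (aa 50-132) binding to KRAS G12C (aa 1-169) after 1.5 h RT, following 1 h, 25° C compound preincubation with GMPPNP-bound protein (pH 7.5 Tris, 1 mM MgCl2, TCEP, Tween 20). IC50 fitted from titrations, with GDP-bound KRAS as 100% and DMSO as 0% inhibition.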

[2] = test system: MIA PaCa-2 cells; test: Growth inhibition activity on KRAS-G12C mutant cell line (MIA PaCa-2), CellTiter-Glo 3D; format: cell-based, human; conditions: MIA PaCa-2, 3-day culture with compound
Method in brief: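 Luminescence readout (CellTiter-Glo 3D) after 3 days of compound treatment at 37 °C, 5% CO2, 0.2% final DMSO, gave % growth inhibition versus no-compound wells, from which IC50 (nM) was derived; cells had been plated in 10% FBS RPMI1640 one day before dosing.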

[3] = target: Gppcp-bound recombinant K-Ras4B G12C mutant protein (amino acids 1-169, C51S/C80L/C118S) (Homo sapiens, UniProt P01116, C118S/C51S/C80L/G12C); test: KRASG12C binding assay (LC-MS, compound binding rate); conditions: test compound final concentration 0.5 μM, 25° C., 1 hour
Method in brief: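 Covalent adduct formation measured by deconvoluted intact-mass LC-MS after 1 h at 25 °C with compound at 0.5 μM final and 50 nM Gppcp-loaded KRAS G12C (residues 1-169, C51S/C80L/C118S). Buffer: TBS, 0.1 mM TCEP, 0.25 mM MgCl2, 50 μM Gppcp. Binding % = one-molecule adduct/(unbound + all adducts), binned A ≥80, B 60–80, C 40–60, D 20–40, E <20.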

Which results are given for `COc1c(-c2cccn3c(C(=O)c4cc(F)c(NC(=O)/C=C/CNC5(C)CC5)c(F)c4)cnc23)c(C(F)(F)F)cc2c1nc(C)n2C` (single isomer, unassigned) [Example 105-1, (E)-N-(2,6-difluoro-4-(8-(4-methoxy-1,2-dimethyl-6-(trifluoromethyl)-1H-benzo[d]imidazol-5-yl)imidazo[1,2-a]pyridine-3-carbonyl)phenyl)-4-((1-methylcyclopropyl)amino)but-2-enamide]?
IC50 [1]: 0.0298 µM; IC50 [2]: 0.0231 µM; binding rate [3]: A (A binding rate of 80% or more is rated “A”)

With `COCCn1c(C)nc2c(F)c(-c3cccn4c(C(=O)c5cc(F)c(NC(=O)/C=C/CNC6(C)CC6)c(F)c5)ccc34)c(OC)cc21` [Example 113, (E)-N-(2,6-difluoro-4-(8-(4-fluoro-6-methoxy-1-(2-methoxyethyl)-2-methyl-1H-benzo[d]imidazol-5-yl)indolizine-3-carbonyl)phenyl)-4-((1-methylcyclopropyl)amino)but-2-enamide] as the compound, how does the IC50 [1] read?
Its IC50 is 0.0449 µM.

And the IC50 ([2]; Homo sapiens, MIA PaCa-2, 72 h)?
The IC50 was 0.0559 µM.

And the binding rate [3]?
The binding rate was “A (A binding rate of 80% or more is rated “A”)”.

`Cc1cc2c(ncn2C)c(C)c1-c1cccn2c(C(=O)c3cc(F)c(NC(=O)/C=C/CNC(C)(C)C)c(F)c3)ccc12` [Example 29, (E)-4-(tert-butylamino)-N-(2,6-difluoro-4-(8-(1,4,6-trimethyl-1H-benzo[d]imidazol-5-vi)indolizine-3-carbonyl)phenyl)but-2-enamide] was tested. Which IC50 [1] did it give?
Its IC50 is 0.09 µM.

And the IC50 ([2]; Homo sapiens, MIA PaCa-2, 72 h)?
Its IC50 is 0.12 µM.

And the binding rate [3]?
Its binding rate is “A (A binding rate of 80% or more is rated “A”)”.

`Cc1nc2cc(-c3cccn4c(C(=O)c5cc(F)c(NC(=O)/C=C/CNC6CCCCC6CO)c(F)c5)ccc34)c(C(F)(F)F)cc2n1C` (stereo not drawn) [Example 65, (E)-N-(4-(8-(1,2-dimethyl-6-(trifluoromethyl)-1H-benzo[d]imidazol-5-yl)indolizine-3-carbonyl)-2,6-difluorophenyl)-4-((2-(hydroxymethyl)cyclohexyl)amino)but-2-enamide] was tested. Which IC50 [1] did it give?
The IC50 was 0.076 µM.

What about the IC50 ([2]; Homo sapiens, MIA PaCa-2, 72 h) of the same compound?
The IC50 was 0.19 µM.

And the binding rate [3]?
Its binding rate is “A (A binding rate of 80% or more is rated “A”)”.

With `CCc1nc2cc(-c3cccn4c(C(=O)c5cc(F)c(NC(=O)/C=C/CN[C@H]6CC[C@H](OC)CC6)c(F)c5)ccc34)c(C(F)(F)F)cc2n1C` [Example 3, (E)-N-(4-(8-(2-ethyl-1-methyl-6-(trifluoromethyl)-1H-benzo[d]imidazol-5-yl)indolizine-3-carbonyl)-2,6-difluorophenyl)-4-(((1r,4r)-4-methoxycyclohexyl)amino)but-2-enamide] as the compound, how does the IC50 [1] read?
The IC50 was 0.072 µM.

And the IC50 ([2]; Homo sapiens, MIA PaCa-2, 72 h)?
Its IC50 is 0.052 µM.

What about the binding rate [3] of the same compound?
The binding rate was “A (A binding rate of 80% or more is rated “A”)”.

How did the IC50 [1] turn out when `COc1cc2c(ncn2C)c(Cl)c1-c1cccn2c(C(=O)c3cc(F)c(NC(=O)/C=C/CN[C@H]4CC[C@H](OC)CC4)c(F)c3)ccc12` (single isomer, unassigned) [Example 41-2, (E)-N-(4-(8-(4-chloro-6-methoxy-1-methyl-1H-benzo[d]imidazol-5-yl)indolizine-3-carbonyl)-2,6-difluorophenyl)-4-(((1r,4r)-4-methoxycyclohexyl)amino)but-2-enamide] was run?
Its IC50 is 0.074 µM.

What about the IC50 [2] of the same compound?
Its IC50 is 0.05 µM.

What about the binding rate [3] of the same compound?
The binding rate was “A (A binding rate of 80% or more is rated “A”)”.

With `CO[C@H]1CC[C@H](NC/C=C/C(=O)Nc2c(F)cc(C(=O)c3ccc4c(-c5c(C(F)(F)F)cc6c(ncn6C)c5Cl)cccn34)cc2F)CC1` (single isomer, unassigned) [Example 28-2, (E)-N-(4-(8-(4-chloro-1-methyl-6-(trifluoromethyl)-1H-benzo[d]imidazol-5-yl)indolizine-3-carbonyl)-2,6-difluorophenyl)-4-(((1r,4r)-4-methoxycyclohexyl)amino)but-2-enamide] as the compound, how does the IC50 [1] read?
The IC50 was 0.8 µM.

And the IC50 [2]?
Its IC50 is 0.94 µM.

What about the binding rate [3] of the same compound?
The binding rate was “A (A binding rate of 80% or more is rated “A”)”.
